Reference: PubChem BioAssay (NCI)
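Protocol summary: plate cells (96-well), add compound at 5 concentrations, incubate 48 h, interpolate endpoints linearly. Abbreviation: GI50, concentration required for 50% inhibition of growth. TGI is the concentration that stops growth completely.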

Assays:
Assay in all cases: inhibition of tumour cell growth, NCI panel, 48 h
HT29 colon = system: HT29 colon
UO-31 renal = system: UO-31 renal
MDA-MB-231 breast = system: MDA-MB-231 breast
MOLT-4 leukemia = system: MOLT-4 leukemia
SK-MEL-5 melanoma = system: SK-MEL-5 melanoma
M14 melanoma = system: M14 melanoma
A549 NSCLC = system: A549 NSCLC
MCF7 breast = system: MCF7 breast
SR leukemia = system: SR leukemia
NCI-H460 lung = system: NCI-H460 lung
SF-268 CNS = system: SF-268 CNS
T-47D breast = system: T-47D breast
U251 CNS = system: U251 CNS
BT-549 breast = system: BT-549 breast
CCRF-CEM leukemia = system: CCRF-CEM leukemia
A498 renal = system: A498 renal
UACC-62 melanoma = system: UACC-62 melanoma
HOP-92 NSCLC = system: HOP-92 NSCLC
RPMI-8226 leukemia = system: RPMI-8226 leukemia
NCI-H23 lung = system: NCI-H23 lung
KM12 colon = system: KM12 colon
UACC-257 melanoma = system: UACC-257 melanoma
SK-MEL-28 melanoma = system: SK-MEL-28 melanoma
DU-145 prostate = system: DU-145 prostate
HOP-62 NSCLC = system: HOP-62 NSCLC
SN12C renal = system: SN12C renal
ACHN renal = system: ACHN renal
TK-10 renal = system: TK-10 renal
SW-620 colon = system: SW-620 colon
NCI/ADR-RES ovarian = system: NCI/ADR-RES ovarian
NCI-H226 lung = system: NCI-H226 lung
HCT-15 colon = system: HCT-15 colon
EKVX NSCLC = system: EKVX NSCLC
HS 578T breast = system: HS 578T breast
RXF 393 renal = system: RXF 393 renal
HCC-2998 colon = system: HCC-2998 colon
786-0 renal = system: 786-0 renal
IGROV1 ovarian = system: IGROV1 ovarian
CAKI-1 renal = system: CAKI-1 renal
LOX IMVI melanoma = system: LOX IMVI melanoma
PC-3 prostate = system: PC-3 prostate
MDA-MB-435 = system: MDA-MB-435
NCI-H522 lung = system: NCI-H522 lung
HCT-116 colon = system: HCT-116 colon
K-562 leukemia = system: K-562 leukemia
OVCAR-5 ovarian = system: OVCAR-5 ovarian
SNB-19 CNS = system: SNB-19 CNS
OVCAR-8 ovarian = system: OVCAR-8 ovarian
SK-OV-3 ovarian = system: SK-OV-3 ovarian
SF-539 CNS = system: SF-539 CNS
OVCAR-4 ovarian = system: OVCAR-4 ovarian
HL-60(TB) leukemia = system: HL-60(TB) leukemia
SK-MEL-2 melanoma = system: SK-MEL-2 melanoma
SNB-75 CNS = system: SNB-75 CNS
MALME-3M melanoma = system: MALME-3M melanoma
SF-295 CNS = system: SF-295 CNS
COLO 205 colon = system: COLO 205 colon

O=C(NNc1nc2cc(F)ccc2n2c(CN3CCC(O)C3)ccc12)c1cnccn1 (stereo not drawn)
GI50 (HT29 colon): 512 nM
TGI (HT29 colon): > 100000 nM
GI50 (UO-31 renal): 97.2 nM
TGI (UO-31 renal): 10100 nM
GI50 (MDA-MB-231 breast): 941 nM
TGI (MDA-MB-231 breast): > 100000 nM
GI50 (MOLT-4 leukemia): 489 nM
TGI (MOLT-4 leukemia): > 51300 nM
GI50 (SK-MEL-5 melanoma): 1000 nM
TGI (SK-MEL-5 melanoma): 8290 nM
TGI (M14 melanoma): 1080 nM
GI50 (A549 NSCLC): 555 nM
TGI (A549 NSCLC): > 100000 nM
GI50 (MCF7 breast): 725 nM
TGI (MCF7 breast): > 100000 nM
GI50 (SR leukemia): 389 nM
TGI (SR leukemia): > 21800 nM
GI50 (NCI-H460 lung): 315 nM
TGI (NCI-H460 lung): > 31600 nM
GI50 (SF-268 CNS): 744 nM
TGI (SF-268 CNS): > 100000 nM
GI50 (T-47D breast): 1190 nM
TGI (T-47D breast): > 100000 nM
GI50 (U251 CNS): 470 nM
TGI (U251 CNS): > 100000 nM
GI50 (BT-549 breast): 327 nM
TGI (BT-549 breast): 9350 nM
GI50 (CCRF-CEM leukemia): 347 nM
TGI (CCRF-CEM leukemia): > 100000 nM
GI50 (A498 renal): 2040 nM
TGI (A498 renal): 8910 nM
GI50 (UACC-62 melanoma): 408 nM
TGI (UACC-62 melanoma): 84400 nM
GI50 (HOP-92 NSCLC): 590 nM
TGI (HOP-92 NSCLC): > 100000 nM
GI50 (RPMI-8226 leukemia): 747 nM
TGI (RPMI-8226 leukemia): > 100000 nM
GI50 (NCI-H23 lung): 1100 nM
TGI (NCI-H23 lung): > 100000 nM
GI50 (KM12 colon): 573 nM
TGI (KM12 colon): > 100000 nM
GI50 (UACC-257 melanoma): 1710 nM
TGI (UACC-257 melanoma): 7530 nM
GI50 (SK-MEL-28 melanoma): 795 nM
TGI (SK-MEL-28 melanoma): > 100000 nM
GI50 (DU-145 prostate): 981 nM
TGI (DU-145 prostate): > 100000 nM
GI50 (HOP-62 NSCLC): 429 nM
TGI (HOP-62 NSCLC): > 30600 nM
GI50 (SN12C renal): 953 nM
TGI (SN12C renal): > 100000 nM
GI50 (ACHN renal): 217 nM
TGI (ACHN renal): 36200 nM
GI50 (TK-10 renal): 921 nM
TGI (TK-10 renal): > 100000 nM
GI50 (SW-620 colon): 973 nM
TGI (SW-620 colon): > 100000 nM
GI50 (NCI/ADR-RES ovarian): 330 nM
TGI (NCI/ADR-RES ovarian): > 35500 nM
GI50 (NCI-H226 lung): 920 nM
TGI (NCI-H226 lung): > 63400 nM
GI50 (HCT-15 colon): 148 nM
TGI (HCT-15 colon): > 100000 nM
GI50 (EKVX NSCLC): 449 nM
TGI (EKVX NSCLC): > 100000 nM
GI50 (HS 578T breast): 8660 nM
TGI (HS 578T breast): > 100000 nM
GI50 (RXF 393 renal): 946 nM
TGI (RXF 393 renal): > 40500 nM
GI50 (HCC-2998 colon): 738 nM
TGI (HCC-2998 colon): > 100000 nM
GI50 (786-0 renal): 308 nM
TGI (786-0 renal): > 22800 nM
GI50 (IGROV1 ovarian): 679 nM
TGI (IGROV1 ovarian): > 100000 nM
GI50 (CAKI-1 renal): 515 nM
TGI (CAKI-1 renal): > 100000 nM
GI50 (LOX IMVI melanoma): 417 nM
TGI (LOX IMVI melanoma): 6160 nM
GI50 (PC-3 prostate): 790 nM
TGI (PC-3 prostate): > 100000 nM
GI50 (MDA-MB-435): 1580 nM
TGI (MDA-MB-435): > 100000 nM
GI50 (NCI-H522 lung): 1130 nM
TGI (NCI-H522 lung): 14700 nM
GI50 (HCT-116 colon): 87.6 nM
TGI (HCT-116 colon): > 35100 nM
GI50 (K-562 leukemia): 564 nM
TGI (K-562 leukemia): > 100000 nM
GI50 (OVCAR-5 ovarian): 1830 nM
TGI (OVCAR-5 ovarian): > 100000 nM
GI50 (SNB-19 CNS): 1000 nM
TGI (SNB-19 CNS): > 100000 nM
GI50 (OVCAR-8 ovarian): 439 nM
TGI (OVCAR-8 ovarian): > 44500 nM
GI50 (SK-OV-3 ovarian): 858 nM
TGI (SK-OV-3 ovarian): > 28900 nM
GI50 (SF-539 CNS): 763 nM
TGI (SF-539 CNS): > 100000 nM
GI50 (OVCAR-4 ovarian): 676 nM
TGI (OVCAR-4 ovarian): > 100000 nM
GI50 (HL-60(TB) leukemia): 622 nM
TGI (HL-60(TB) leukemia): 6360 nM
GI50 (SK-MEL-2 melanoma): 4090 nM
TGI (SK-MEL-2 melanoma): > 100000 nM
GI50 (SNB-75 CNS): 1960 nM
TGI (SNB-75 CNS): > 30400 nM
GI50 (MALME-3M melanoma): 1570 nM
TGI (MALME-3M melanoma): > 100000 nM
GI50 (SF-295 CNS): 421 nM
TGI (SF-295 CNS): > 100000 nM
GI50 (COLO 205 colon): 406 nM
TGI (COLO 205 colon): > 100000 nM
